# Experimental data published in patent US20230066011A1, “PYRROLOPYRIMIDINE DERIVATIVE, AND PHARMACEUTICAL COMPOSITION FOR PREVENTING OR TREATING PROTEIN KINASE-RELATED DISEASE COMPRISING SAME AS ACTIVE INGREDIENT” (VORONOI CO., LTD., priority 2019, published 2023).
# Experiments:
# Assay type in all cases: biochemical
# [1] = target: T1, human GST-DYRK1A (Homo sapiens, UniProt Q13627); assay: GST-DYRK1A enzyme inhibition, ADP-Glo kinase assay; conditions: ATP 10 μM, GST-DYRK1A full length, read-out: DYRK1 IC50
# T1 construct: purified human GST-DYRK1A (full length, Thermo Scientifics) enzyme; purchased Thermo Scientifics
# Outline: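 Full-length human GST-DYRK1A (10 ng) with 10 μM ATP and specific substrate in 40 mM Tris-HCl pH 7.4, 20 mM MgCl2, 0.5 mg/mL BSA, 50 μM DTT, 1 h at 25 °C. ADP formation read by ADP-Glo luminescence relative to solvent control; IC50 from three data sets.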
# [2] = target: T2, human GST-CLK1 (Homo sapiens, UniProt P49759); assay: GST-CLK1 enzyme inhibition, ADP-Glo kinase assay; conditions: ATP 10 μM, GST-CLK1 129-end
# T2 construct: purified human GST-CLK1 (129-end, SignalChem) enzyme; purchased SignalChem
# Outline: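 Human GST-CLK1 (129-end, 3 ng) reacted with substrate and 10 μM ATP for 1 h at 25° C in 40 mM Tris-HCl pH 7.4, 20 mM MgCl2, 0.5 mg/mL BSA, 50 μM DTT. ADP-Glo luminescence was normalised to solvent control; IC50 (nM) from 3 data sets.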
# [3] = target: LRRK2 (Homo sapiens, UniProt Q5S007); assay: LRRK2 enzyme inhibition, ADP-Glo kinase assay; set-up: purchased Invitrogen PR8604B; conditions: ATP 10 μM
# Description: To evaluate an inhibitory activity of the compound according to the present invention against LRRK2, LRRK2 (G2019S), DYRK1, CLK1, and TTK kinases, experiments were performed as follows.
# Each of the Example compounds was reacted with a purified human LRRK2 (Invitrogen #PR8604B) enzyme to evaluate an ability to inhibit an enzyme using a method as described below. A composition of 40 mM Tris-HCl (pH 7.4), 20 mM MgCl2, 0.5 mg/mL BSA, and 50 μM DTT was used as a reaction buffer, and all reactions of test substances were performed in the reaction buffer. Each of the compounds was diluted […] from a 10 mM DMSO stock using a serial dilution method, and enzyme activities were measured at final compound concentrations of 50, 10, 2, 0.4, 0.08, 0.016, 0.0032, 0.00064, 0.000128, 0.0000256, 0.00000512, and 0.000001024 μM. In the test, purified ATP (10 μM) and an enzyme substrate (0.2 μg) were reacted with a human LRRK2 (25 ng) enzyme at 25° C. for 2 hours, and the enzyme activities were determined using an in vitro ADP-Glo™ kinase assay (Promega). An enzyme-activity reaction solution, an ADP-Glo reaction solution, and an enzyme-ability detection solution were reacted at a ratio of 2:2:1 to measure a degree of inhibition of the enzyme activity with luminescence. The degree of inhibition of the enzyme activity according to the treatment concentration of each of the compounds was calculated based on the fluorescence of the enzyme activity of the solvent control which was not treated with the compound. In this case, the concentration of each of the compounds inhibiting 50% of the enzyme activity was determined to be an IC50 (nM) value, and calculated using Prism (Version 5.01; GraphPad) software.
# [4] = target: LRRK2 (G2019S) (Homo sapiens, UniProt Q5S007, G2019S); assay: LRRK2 G2019S enzyme inhibition, ADP-Glo kinase assay; set-up: purchased SignalChem L10-12GG; conditions: ATP 25 μM
# Outline: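 Purified human LRRK2 G2019S (16 ng) with 25 μM ATP and 0.2 μg substrate, 2 h at 25° C. in Tris-HCl pH 7.4, MgCl2, BSA, DTT buffer; compounds at 12 final concentrations, 50 μM down to 0.000001024 μM. ADP-Glo luminescence versus solvent control gave IC50.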
# T2 sequence (P49759 129-484 limits assumed): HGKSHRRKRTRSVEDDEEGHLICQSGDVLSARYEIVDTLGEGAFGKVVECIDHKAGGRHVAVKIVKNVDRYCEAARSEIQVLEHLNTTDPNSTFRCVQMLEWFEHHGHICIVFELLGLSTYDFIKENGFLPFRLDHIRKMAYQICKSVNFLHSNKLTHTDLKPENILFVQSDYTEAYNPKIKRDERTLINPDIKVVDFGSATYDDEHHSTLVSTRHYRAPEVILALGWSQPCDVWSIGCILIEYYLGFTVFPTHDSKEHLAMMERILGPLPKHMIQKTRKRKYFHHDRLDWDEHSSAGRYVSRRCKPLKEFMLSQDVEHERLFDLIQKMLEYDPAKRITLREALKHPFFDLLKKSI
# Sequence of LRRK2 (G2019S) (Q5S007 970-2527 G2019S limits assumed): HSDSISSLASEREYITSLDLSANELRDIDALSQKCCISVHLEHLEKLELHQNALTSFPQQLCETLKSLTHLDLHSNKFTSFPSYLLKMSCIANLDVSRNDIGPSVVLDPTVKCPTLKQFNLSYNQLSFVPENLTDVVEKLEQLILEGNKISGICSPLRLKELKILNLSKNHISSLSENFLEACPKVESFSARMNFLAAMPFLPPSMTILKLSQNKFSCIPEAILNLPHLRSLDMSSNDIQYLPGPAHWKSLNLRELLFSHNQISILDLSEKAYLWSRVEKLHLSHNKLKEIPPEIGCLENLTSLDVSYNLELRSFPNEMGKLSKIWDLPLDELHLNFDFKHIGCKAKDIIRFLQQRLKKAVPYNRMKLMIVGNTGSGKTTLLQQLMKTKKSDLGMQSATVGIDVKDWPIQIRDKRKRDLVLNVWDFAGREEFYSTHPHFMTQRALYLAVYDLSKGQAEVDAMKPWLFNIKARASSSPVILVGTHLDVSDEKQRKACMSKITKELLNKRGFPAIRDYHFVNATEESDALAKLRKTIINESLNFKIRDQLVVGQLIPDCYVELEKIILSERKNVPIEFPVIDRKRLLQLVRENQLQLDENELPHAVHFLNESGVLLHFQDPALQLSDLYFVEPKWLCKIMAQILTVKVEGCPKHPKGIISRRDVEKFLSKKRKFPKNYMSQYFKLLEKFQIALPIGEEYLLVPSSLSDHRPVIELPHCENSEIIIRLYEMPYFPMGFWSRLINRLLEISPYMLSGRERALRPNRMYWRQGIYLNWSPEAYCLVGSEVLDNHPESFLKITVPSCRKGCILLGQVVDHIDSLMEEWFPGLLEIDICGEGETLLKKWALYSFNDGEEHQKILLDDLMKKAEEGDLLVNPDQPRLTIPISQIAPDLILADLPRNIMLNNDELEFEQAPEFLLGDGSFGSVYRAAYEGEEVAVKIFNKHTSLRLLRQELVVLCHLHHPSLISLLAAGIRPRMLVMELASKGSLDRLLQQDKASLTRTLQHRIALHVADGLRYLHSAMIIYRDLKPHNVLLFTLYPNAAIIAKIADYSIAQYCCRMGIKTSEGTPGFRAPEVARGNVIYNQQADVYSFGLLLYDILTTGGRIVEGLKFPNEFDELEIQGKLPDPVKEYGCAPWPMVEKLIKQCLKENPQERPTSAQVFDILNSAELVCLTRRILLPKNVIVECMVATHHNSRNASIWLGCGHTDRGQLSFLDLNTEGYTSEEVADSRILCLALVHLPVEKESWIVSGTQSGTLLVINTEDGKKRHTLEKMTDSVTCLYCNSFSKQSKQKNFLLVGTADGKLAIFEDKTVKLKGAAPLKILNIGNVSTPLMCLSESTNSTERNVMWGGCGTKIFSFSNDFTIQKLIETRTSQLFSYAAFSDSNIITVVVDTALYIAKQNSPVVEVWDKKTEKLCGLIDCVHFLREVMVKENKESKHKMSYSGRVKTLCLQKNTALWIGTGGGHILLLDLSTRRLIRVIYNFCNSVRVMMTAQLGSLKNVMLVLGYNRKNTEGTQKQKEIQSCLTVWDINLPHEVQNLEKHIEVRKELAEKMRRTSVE
# Sequence of LRRK2 (Q5S007 970-2527 limits assumed): as the sequence (Q5S007 970-2527 G2019S limits assumed) above, with S1050G counted along it
Structure (SMILES),IC50 [1] [nM],IC50 [2] [nM],IC50 [3] [nM],IC50 [4] [nM]
"COCCNc1nc(Nc2ccc(S(=O)(=O)N3CCOCC3)cc2OC)nc2[nH]ccc12 [Example 19, N^2-(2-methoxy-4-(morpholinosulfonyl)phenyl)-N^4-(2-methoxyethyl)-7H-pyrrolo[2,3-d]pyrimidine-2,4-diamine]",301 to 1000,301 to 1000,< 100,< 100
"CNc1nc(Nc2ccc(C(=O)N3CCOCC3)c3c2OCCO3)nc2[nH]ccc12 [Example 43, (8-((4-(methylamino)-7H-pyrrolo[2,3-d]pyrimidin-2-yl)amino)-2,3-dihydrobenzo[b][1,4]dioxin-5-yl)(morpholino)methanone]",301 to 1000,301 to 1000,< 100,< 100
"CCNc1nc(Nc2ccc(C(=O)N3CCOCC3)c3c2OCCO3)nc2[nH]ccc12 [Example 58, (8-((4-(ethylamino)-7H-pyrrolo[2,3-d]pyrimidin-2-yl)amino)-2,3-dihydrobenzo[b][1,4]dioxin-5-yl)(morpholino)methanone 2,2,2-trifluoroacetate]",301 to 1000,301 to 1000,< 100,< 100
"CNc1nc(Nc2ccc(S(=O)(=O)N3CCC(N4CCOCC4)CC3)cc2OC)nc2[nH]cc(C#N)c12 [Example 81, 2-((2-methoxy-4-((4-morpholinopiperidin-1-yl)sulfonyl)phenyl)amino)-4-(methylamino)-7H-pyrrolo[2,3-d]pyrimidine-5-carbonitrile]",301 to 1000,< 100,< 100,< 100
"COc1cc(S(=O)(=O)N2CCC(N3CCOCC3)CC2)ccc1Nc1nc(NCCS(C)(=O)=O)c2c(C#N)c[nH]c2n1 [Example 96, 2-((2-methoxy-4-((4-morpholinopiperidin-1-yl)sulfonyl)phenyl)amino)-4-((2-(methylsulfonyl)ethyl)amino)-7H-pyrrolo[2,3-d]pyrimidine-5-carbonitrile]",301 to 1000,< 100,< 100,< 100
"CNc1nc(Nc2ccc(C(=O)N3CCC(N4CCOCC4)CC3)c3c2OCO3)nc2[nH]cc(C(F)(F)F)c12 [Example 215, (7-((4-(methylamino)-5-(trifluoromethyl)-7H-pyrrolo[2,3-d]pyrimidin-2-yl)amino)benzo[d][1,3]dioxol-4-yl)(4-morpholinopiperidin-1-yl)methanone]",101 to 300,101 to 300,< 100,–
"COc1cc(S(C)(=O)=O)ccc1Nc1nc(C2CC2)c2c(C#N)c[nH]c2n1 [Example 222, 4-cyclopropyl-2-((2-methoxy-4-(methylsulfonyl)phenyl)amino)-7H-pyrrolo[2,3-d]pyrimidine-5-carbonitrile]",301 to 1000,301 to 1000,< 100,–
"COCCNc1nc(Nc2ccc(C(=O)N3CCC(N4CCOCC4)CC3)c3c2OCCO3)nc2[nH]cc(C#N)c12 [Example 256, 4-((2-methoxyethyl)amino)-2-((8-(4-morpholinopiperidine-1-carbonyl)-2,3-dihydrobenzo[b][1,4]dioxin-5-yl)amino)-7H-pyrrolo[2,3-d]pyrimidine-5-carbonitrile]",< 100,< 100,< 100,–
"CCNc1nc(Nc2ccc(P3(=O)CCN(CC)CC3)cc2OC)nc2[nH]cc(C#N)c12 [Example 260, 2-((4-(1-ethyl-4-oxido-1,4-azaphosphinan-4-yl)-2-methoxyphenyl)amino)-4-(ethylamino)-7H-pyrrolo[2,3-d]pyrimidine-5-carbonitrile]",101 to 300,101 to 300,< 100,–
"CCNc1nc(Nc2ccc(C(=O)N3CCOCC3)c3c2OCO3)nc2[nH]cc(C#N)c12 [Example 277, 4-(ethylamino)-2-((7-(morpholine-4-carbonyl)benzo[d][1,3]dioxol-4-yl)amino)-7H-pyrrolo[2,3-d]pyrimidine-5-carbonitrile]",301 to 1000,301 to 1000,< 100,–
"CCNc1nc(Nc2ccc(P3(=O)CCN(C4COC4)CC3)cc2OC)nc2[nH]cc(C(F)(F)F)c12 [Example 399, 4-(4-((4-(ethylamino)-5-(trifluoromethyl)-7H-pyrrolo[2,3-d]pyrimidin-2-yl)amino)-3-methoxyphenyl)-1-(oxetan-3-yl)-1,4-azaphosphinane 4-oxide]",< 100,< 100,< 100,–

# Second part, the compound after the results:
IC50 [1] [nM],IC50 [2] [nM],IC50 [3] [nM],IC50 [4] [nM],Structure (SMILES)
301 to 1000,101 to 300,< 100,–,"CCCNc1nc(Nc2ccc(P3(=O)CCN(C4CC4)CC3)cc2OC)nc2[nH]cc(C(F)(F)F)c12 [Example 401, 1-cyclopropyl-4-(3-methoxy-4-((4-(propylamino)-5-(trifluoromethyl)-7H-pyrrolo[2,3-d]pyrimidin-2-yl)amino)phenyl)-1,4-azaphosphinane 4-oxide]"
< 100,< 100,< 100,–,"COc1cc(P2(=O)CCN(C3CC3)CC2)ccc1Nc1nc(NC2CC2)c2c(C(F)(F)F)c[nH]c2n1 [Example 404, 1-cyclopropyl-4-(4-((4-(cyclo-propylamino) 5-(trifluoromethyl)-7H-pyrrolo[2,3-d]pyrimidin-2-yl)amino)3-methoxyphenyl)-1,4-azaphosphinane 4-oxide]"
< 100,< 100,< 100,–,CCNc1nc(Nc2ccc(C(=O)N3C[C@@H]4C[C@H]3CO4)c3c2OCCO3)nc2[nH]cc(C(F)(F)F)c12 [Example 409]
301 to 1000,301 to 1000,< 100,–,"O=C(c1ccc(Nc2nc(NCC3CCC3)c3c(C(F)(F)F)c[nH]c3n2)c2c1OCCO2)N1CCN(C2COC2)CC1 [Example 424, (8-((4-((cyclo-butylmethyl)amino)-5-(trifluoromethyl)-7H-pyrrolo[2,3-d]pyrimidin-2-yl)amino)-2,3-dihydrobenzo[b] [1,4]dioxin-5-yl) (4-(oxetan-3-yl)piperazin-1-yl)methanone]"
< 100,< 100,< 100,–,"CNc1nc(Nc2ccc(P3(=O)CCN(C4CCOCC4)CC3)cc2OC)nc2[nH]cc(C(F)(F)F)c12 [Example 436, 4-(3-methoxy-4-((4-(methylamino)-5-(trifluoromethyl)-7H-pyrrolo[2,3-d]pyrimidin-2-yl)amino)phenyl)-1-(tetrahydro-2H-pyran-4-yl)-1,4-azaphosphinane 4-oxide]"
101 to 300,< 100,< 100,–,"CC[C@H](C)Nc1nc(Nc2ccc(C(=O)N3CCC(N4CCOCC4)CC3)c3c2OCC3)nc2[nH]cc(C(F)(F)F)c12 [Example 452, (S)-(7-((4-(sec-butylamino)-5-(trifluoromethyl)-7H-pyrrolo[2,3-d]pyrimidin-2-yl)amino)-2,3-dihydrobenzo-furan-4-yl)(4-morpho-linopiperidin-1-yl)methanone]"
301 to 1000,301 to 1000,< 100,–,"O=C(c1ccc(Nc2nc(NC3CCCCC3)c3c(C(F)(F)F)c[nH]c3n2)c2c1CCO2)N1CCC(N2CCOCC2)CC1 [Example 460, (7-((4-(cyclo-hexylamino)-5-(trifluoromethyl)-7H-pyrrolo[2,3-d]pyrimidin-2-yl)amino)-2,3-dihydrobenzo-furan-4-yl)(4-morpho-linopiperidin-1-yl)methanone]"
301 to 1000,301 to 1000,301 to 1000,–,"C=CCNc1nc(Nc2ccc(S(=O)(=O)N3CCOCC3)cc2OC)nc2[nH]cc(C(F)(F)F)c12 [Example 474, N^4-allyl-N^2-(2-methoxy-4-(morpholino-sulfonyl)phenyl)-5-(trifluoromethyl)-7H-pyrrolo[2,3-d]pyrimidine-2,4-diamine]"
